Laboratory results published in patent US6914045B2, “Glycopeptide antibiotics” (Wyeth Holdings Corporation, priority 2001, dated 2005).
In brackets after ≈: the same amount, converted by molar mass. Numbered stars: 1 amine (or outer) side, 2 acyl side, 3 side chain; on linkers, the order of the positions; unused ones are H or OH. Square brackets hold non-standard residues; d marks the D form. Peptide text beside a SMILES is read from it. * marks the point of attachment. ξ: configuration not given here. X1 = N=C1NCC(C(O)C(N[*:1])C(=O)[*:2])N1C1OC(CO)C(O)C(O)C1O; ξEnduracididine(βξ-OH,4'ξ) = N=C1NCC(C(O)C(N)C(=O)O)N1; X2 = OCC1OC(OC2C(CO)OC(*)C(O)C2O)C(O)C(O)C1O

Key:
Test in all cases: in vitro antibacterial evaluation, MIC by broth dilution
Type in all cases: cell-based
Enterococcus sp. = details: broth dilution, 18 hours at 35° C.
Method in brief: (§1)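 Step 1: dilute antibiotic across 64-0.06 μg/mL in Muller-Hinton II […]. Step 2: inoculate at 5×10^5 CFU/mL.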

Escherichia coli = details: 18 hours at 35° C.
Method in brief: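 Broth dilution per NCCLS standard M7-A2 in Muller-Hinton II […], with an inoculum of 5×10^5 CFU/mL and antibiotic spanning 64-0.06 μg/mL. The MIC is the lowest concentration that inhibits growth of the organism.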

Staphylococcus sp. = details: broth dilution, 18 hours at 35° C.
Method in brief: as §1

Streptococcus sp. = details: broth dilution, 18 hours at 35° C.
Method in brief: as §1

## N=C1NCC(C(O)C2NC(=O)C(Cc3ccc(OC4OC(CO)C(OC5OC(CO)C(O)C(O)C5O)C(O)C4O)cc3)NC(=O)C(Cc3ccccc3)NC(=O)CNC(=O)C(CO)NC(=O)C(C(O)C3CNC(=N)N3C3OC(CO)C(O)C(O)C3O)NC2=O)N1 (stereo not drawn) [Example 282, Cyclo[glycylphenylalanyl-O-(4-O-hexopyranosylhexopyranosyl)tyrosyl-3-(2-iminomidazolidin-4-yl)seryl-3-(3-hexopyranosyl-2-iminoimidazolidin-4-yl)serylseryl]] (cyclo(GFY(X2)[ξEnduracididine(βξ-OH,4'ξ)][X1]S); configuration not given here)
Enterococcus sp.; Enterococcus avium (GC 4558)
  MIC Enterococcus avium (GC 4558): 128 µg/mL (≈ 99.9 µM)
Enterococcus sp.; Enterococcus faecalis (ATCC 29212)
  MIC Enterococcus faecalis (ATCC 29212): >128 µg/mL
Enterococcus sp.; Enterococcus faecalis (GC 4553)
  MIC Enterococcus faecalis (GC 4553): >128 µg/mL
Enterococcus sp.; Enterococcus faecalis (GC 4554)
  MIC Enterococcus faecalis (GC 4554): >128 µg/mL
Enterococcus sp.; Enterococcus faecalis (GC 6189)
  MIC Enterococcus faecalis (GC 6189): >128 µg/mL
Enterococcus sp.; Enterococcus faecium (GC 2243)
  MIC Enterococcus faecium (GC 2243): >128 µg/mL
Enterococcus sp.; Enterococcus faecium (GC 4556)
  MIC Enterococcus faecium (GC 4556): >128 µg/mL
Enterococcus sp.; Enterococcus faecium (GC 4557)
  MIC Enterococcus faecium (GC 4557): 128 µg/mL (≈ 99.9 µM)
Enterococcus sp.; strain ATCC 29212
  MIC Enterococcus faecalis (ATCC 29212): >128 µg/mL
Enterococcus sp.; strain GC 2242
  MIC Enterococcus faecalis (GC 2242): >128 µg/mL
Enterococcus sp.; strain GC 2243
  MIC Enterococcus faecium (GC 2243): >128 µg/mL
Enterococcus sp.; strain GC 2691
  MIC Enterococcus faecalis (GC 2691): >128 µg/mL
Enterococcus sp.; strain GC 3059
  MIC Enterococcus faecalis (GC 3059): >128 µg/mL
Enterococcus sp.; strain GC 4552
  MIC Enterococcus faecalis (GC 4552): >128 µg/mL
Enterococcus sp.; strain GC 4553
  MIC Enterococcus faecalis (GC 4553): >128 µg/mL
Enterococcus sp.; strain GC 4554
  MIC Enterococcus faecalis (GC 4554): >128 µg/mL
Enterococcus sp.; strain GC 4556
  MIC Enterococcus faecium (GC 4556): >128 µg/mL
Enterococcus sp.; strain GC 4557
  MIC Enterococcus faecium (GC 4557): 128 µg/mL (≈ 99.9 µM)
Enterococcus sp.; strain GC 4558
  MIC Enterococcus avium (GC 4558): 128 µg/mL (≈ 99.9 µM)
Enterococcus sp.; strain GC 6189
  MIC Enterococcus faecalis (GC 6189): >128 µg/mL
Escherichia coli; Escherichia coli (ATCC 25922)
  MIC Escherichia coli (ATCC 25922): >128 µg/mL
Escherichia coli; Escherichia coli (GC 4559)
  MIC Escherichia coli (GC 4559): >128 µg/mL
Escherichia coli; Escherichia coli (GC 4560)
  MIC Escherichia coli (GC 4560): 128 µg/mL (≈ 99.9 µM)
Staphylococcus sp.
  MIC Coagulase Negative Staphylococcus (GC 4547): >128 µg/mL
  MIC Coagulase Negative Staphylococcus (GC 4548): >128 µg/mL
  MIC Coagulase Negative Staphylococcus (GC 4549): >128 µg/mL
  MIC Coagulase Negative Staphylococcus (GC 4551): >128 µg/mL
  MIC Staphylococcus aureus (ATCC 29213): >128 µg/mL
  MIC Staphylococcus aureus (GC 1131): >128 µg/mL
  MIC Staphylococcus aureus (GC 3051): >128 µg/mL
  MIC Staphylococcus aureus (GC 3053): >128 µg/mL
  MIC Staphylococcus aureus (GC 4541): >128 µg/mL
  MIC Staphylococcus aureus (GC 4542): >128 µg/mL
  MIC Staphylococcus aureus (GC 4544): >128 µg/mL
  MIC Staphylococcus aureus (GC 4545): >128 µg/mL
  MIC Staphylococcus aureus-SMITH (GC 4543): >128 µg/mL
  MIC Staphylococcus haemolyticus (GC 4546): >128 µg/mL
Staphylococcus sp.; strain ATCC 29213
  MIC Staphylococcus aureus (ATCC 29213): >128 µg/mL
Staphylococcus sp.; strain GC 1131
  MIC Staphylococcus aureus (GC 1131): >128 µg/mL
Staphylococcus sp.; strain GC 3051
  MIC Staphylococcus aureus (GC 3051): >128 µg/mL
Staphylococcus sp.; strain GC 3053
  MIC Staphylococcus aureus (GC 3053): >128 µg/mL
Staphylococcus sp.; strain GC 4541
  MIC Staphylococcus aureus (GC 4541): >128 µg/mL
Staphylococcus sp.; strain GC 4542
  MIC Staphylococcus aureus (GC 4542): >128 µg/mL
Staphylococcus sp.; strain GC 4544
  MIC Staphylococcus aureus (GC 4544): >128 µg/mL
Staphylococcus sp.; strain GC 4545
  MIC Staphylococcus aureus (GC 4545): >128 µg/mL
Staphylococcus sp.; strain GC 4546
  MIC Staphylococcus haemolyticus (GC 4546): >128 µg/mL
Staphylococcus sp.; strain GC 4547
  MIC Coagulase Negative Staphylococcus (GC 4547): >128 µg/mL
Staphylococcus sp.; strain GC 4548
  MIC Coagulase Negative Staphylococcus (GC 4548): >128 µg/mL
Staphylococcus sp.; strain GC 4549
  MIC Coagulase Negative Staphylococcus (GC 4549): >128 µg/mL
Staphylococcus sp.; strain GC 4551
  MIC Coagulase Negative Staphylococcus (GC 4551): >128 µg/mL
Staphylococcus sp.; strain SMITH GC 4543
  MIC Staphylococcus aureus-SMITH (GC 4543): >128 µg/mL
Streptococcus sp.; strain ATCC 6301
  MIC Streptococcus pneumoniae (ATCC 6301): 128 µg/mL (≈ 99.9 µM)
Streptococcus sp.; strain GC 1894
  MIC Streptococcus pneumoniae (GC 1894): 128 µg/mL (≈ 99.9 µM)
Streptococcus sp.; strain GC 4563
  MIC Streptococcus pyogenes (GC 4563): >128 µg/mL
Streptococcus sp.; strain GC 4564
  MIC Streptococcus agalactiae (GC 4564): >128 µg/mL
Streptococcus sp.; strain GC 4565
  MIC Streptococcus pneumoniae (GC 4565): >128 µg/mL
